# Assay results reported in patent US20260226019A1, “NEGATIVE ALLOSTERIC MODULATORS OF METABOTROPIC GLUTAMATE RECEPTOR 2” (Vanderbilt University, priority 2023, published 2026).
# Read-outs that look alike come from different tables or passages of the source.
# Columns and labels:
# [1] = C57B16/J mice, FST; cited from earlier work
# [2] = test system: mGlu2/3 receptor; details: mouse tail-suspension test, normal animals; cited from earlier work
# [3] = test system: mGlu2/3 receptor; details: rat forced swim test, normal animals; cited from earlier work
# [4] = test system: group II mGlu receptors; details: treated mice; cited from earlier work
# [5] = cited from earlier work; for activity in the tail suspension test: Helpless (H) mice; for antidepressant effect: helpless mice
# [6] = test system: mGlu2; details: cited from earlier work
# [7] = test system: central mGlu2 and mGlu3 receptors; details: target-specific manner; cited from earlier work
# [8] = test system: group II mGlu receptors (mGlu2 and mGlu3); details: CFS model; cited from earlier work
# [9] = test system: mGlu2/3 receptor; details: learned helplessness test; treatment for 7 days; cited from earlier work
# [10] = olfactory bulbectomized rats; repeated administration for 14 days; cited from earlier work
# [11] = social isolation reared mice; cited from earlier work
# [12] = dominant-submissive test; cited from earlier work
# [13] = test system: group II mGlu receptors (mGlu2 and mGlu3); details: cited from earlier work
# [14] = molecular target: T1, human mGlu3 (Homo sapiens, UniProt Q14832); experiment: mGlu GIRK cell-based thallium flux assay, human mGlu3; details: HEK-293 cells co-expressing human mGlu3 and GIRK, EC80 glutamate, single experiment
# T1 construct: expressed in transfected cells; host or cells: HEK-293 stably co-expressing GIRK channels
# T1 sequence (Q14832 23-879): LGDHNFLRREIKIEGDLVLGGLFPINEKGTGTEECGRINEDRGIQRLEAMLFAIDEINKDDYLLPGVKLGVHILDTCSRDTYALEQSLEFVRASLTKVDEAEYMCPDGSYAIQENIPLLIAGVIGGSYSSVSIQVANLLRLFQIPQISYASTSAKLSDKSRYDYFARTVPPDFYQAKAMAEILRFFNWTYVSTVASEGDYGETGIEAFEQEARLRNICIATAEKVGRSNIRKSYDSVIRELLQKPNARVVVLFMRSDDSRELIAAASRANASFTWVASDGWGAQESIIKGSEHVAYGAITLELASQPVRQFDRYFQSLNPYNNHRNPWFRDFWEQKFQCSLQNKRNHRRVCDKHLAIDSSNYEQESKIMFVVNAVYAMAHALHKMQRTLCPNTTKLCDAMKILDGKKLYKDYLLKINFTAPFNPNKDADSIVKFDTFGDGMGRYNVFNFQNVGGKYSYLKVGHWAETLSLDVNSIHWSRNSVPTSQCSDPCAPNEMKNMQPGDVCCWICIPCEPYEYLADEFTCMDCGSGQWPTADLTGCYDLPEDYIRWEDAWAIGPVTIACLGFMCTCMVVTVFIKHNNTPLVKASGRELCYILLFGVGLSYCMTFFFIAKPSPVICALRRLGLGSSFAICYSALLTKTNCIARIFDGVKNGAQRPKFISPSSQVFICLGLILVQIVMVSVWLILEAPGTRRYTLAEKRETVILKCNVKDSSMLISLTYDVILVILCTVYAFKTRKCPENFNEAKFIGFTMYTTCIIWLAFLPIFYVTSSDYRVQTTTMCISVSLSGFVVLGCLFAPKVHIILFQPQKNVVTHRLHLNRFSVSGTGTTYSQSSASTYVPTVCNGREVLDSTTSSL
# Procedure: Human embryonic kidney (HEK-293) cell lines stably co-expressing human or rat mGlu2 and G protein-coupled inwardly rectifying potassium (GIRK) channels, or human mGlu3 and GIRK, were used for in vitro evaluation of compound activity in thallium flux assay using a fluorescent thallium indicator dye.
# The day before the assay, GIRK cells co-expressing human mGlu3, human or rat mGlu2, as described above, were plated in black-walled, clear-bottomed, amine-coated 384-well plates at a density of 15,000 cells/[…]/well in the assay medium (glutamine-depleted basal DMEM supplemented with 10% dialyzed FBS, 20 mM HEPES, 1 mM sodium pyruvate). Cells were incubated at 37° C. in the presence of 5% CO2. The next day, assay buffer (Hanks balanced salt solution, 20 mM HEPES, 4.16 mM sodium bicarbonate, pH 7.2) was prepared to dilute compounds and Thallos AM fluorescent dye solution. The 2× Thallos dye solution (final concentration 0.34 μM to the cells) was prepared by mixing the dye stock (2.97 mM in DMSO) to 1:1 with 10% pluronic acid before adding to the assay buffer. Cells were washed with assay buffer using a microplate washer to remove the medium, resulting in 20 μL of buffer remaining in each well. […] During the cell dye loading incubation period, a 10-point concentration serial dilution of compound was created from a 10 mM DMSO compound stock by performing a 1:3 serial dilution in DMSO using the Bravo liquid handler. The 2× compound plate was generated by transferring 0.24 μL of the diluted compound in each well to a daughter plate using an Echo acoustic liquid handler. This is further diluted in 40 μL assay buffer, resulting in a range from […] to 1.5 nM final concentration in the assay. The agonist plate (5×) was prepared to include EC80 glutamate concentration (a concentration to elicit 80% of a maximally effective glutamate concentration) in thallium buffer (125 mM sodium bicarbonate, 1 mM magnesium sulfate, 1.8 mM calcium sulfate, 5 mM glucose, 10 mM HEPES, pH 7.2, 12.5 mM thallium sulfate).
# After dye-loading, cell plates were washed with assay buffer to remove excess extracellular dye using a microplate washer, resulting in 20 μL of buffer remaining in each well. After a ten-minute equilibration period, cell, compound and agonist plates were loaded into a Hamamatsu μCell kinetic imaging plate reader equipped with liquid handler to monitor fluorescence changes at 480 nm excitation and 540 nm emission settings. Briefly, after collection of baseline fluorescence, 20 μL of compound was added and incubated for two minutes and twenty seconds. This is immediately followed by adding 10 μL of glutamate-thallium buffer to the wells containing compound. The fluorescent signal was monitored an additional 2.5 minutes after the glutamate addition. Multiple reference wells containing no compound received either no glutamate (for a baseline reference), EC80 glutamate, or ECmax glutamate (for normalization to maximum response). […] Each compound concentration series occurred one time in each plate, and replicates from two or three plates were used in each experimental run. Thallium solutions were handled and disposed of according to guidelines from the Vanderbilt University Chemical Safety department.
# Data were normalized using a static ratio function (F/F0) by dividing every fluorescent measurement by the initial fluorescent value for the corresponding well. The increase in signal resulting from the glutamate/thallium addition of the second add was measured by determining the slope from 3 seconds to 13 seconds after the addition. The average of all baseline slopes (no compound, no glutamate) was determined and this value was subtracted from all other slope values. The average of all ECmax slopes was determined and this value was used to normalize the baseline-corrected slopes to a percent max value (% Emax).
# [15] = molecular target: T2, human mGlu2 (Homo sapiens, UniProt Q14416); experiment: mGlu GIRK cell-based thallium flux assay, human mGlu2; details: HEK-293 cells co-expressing human mGlu2 and GIRK, EC80 glutamate, single experiment
# T2 construct: expressed in transfected cells; host or cells: HEK-293 stably co-expressing GIRK channels
# T2 sequence (Q14416 19-872): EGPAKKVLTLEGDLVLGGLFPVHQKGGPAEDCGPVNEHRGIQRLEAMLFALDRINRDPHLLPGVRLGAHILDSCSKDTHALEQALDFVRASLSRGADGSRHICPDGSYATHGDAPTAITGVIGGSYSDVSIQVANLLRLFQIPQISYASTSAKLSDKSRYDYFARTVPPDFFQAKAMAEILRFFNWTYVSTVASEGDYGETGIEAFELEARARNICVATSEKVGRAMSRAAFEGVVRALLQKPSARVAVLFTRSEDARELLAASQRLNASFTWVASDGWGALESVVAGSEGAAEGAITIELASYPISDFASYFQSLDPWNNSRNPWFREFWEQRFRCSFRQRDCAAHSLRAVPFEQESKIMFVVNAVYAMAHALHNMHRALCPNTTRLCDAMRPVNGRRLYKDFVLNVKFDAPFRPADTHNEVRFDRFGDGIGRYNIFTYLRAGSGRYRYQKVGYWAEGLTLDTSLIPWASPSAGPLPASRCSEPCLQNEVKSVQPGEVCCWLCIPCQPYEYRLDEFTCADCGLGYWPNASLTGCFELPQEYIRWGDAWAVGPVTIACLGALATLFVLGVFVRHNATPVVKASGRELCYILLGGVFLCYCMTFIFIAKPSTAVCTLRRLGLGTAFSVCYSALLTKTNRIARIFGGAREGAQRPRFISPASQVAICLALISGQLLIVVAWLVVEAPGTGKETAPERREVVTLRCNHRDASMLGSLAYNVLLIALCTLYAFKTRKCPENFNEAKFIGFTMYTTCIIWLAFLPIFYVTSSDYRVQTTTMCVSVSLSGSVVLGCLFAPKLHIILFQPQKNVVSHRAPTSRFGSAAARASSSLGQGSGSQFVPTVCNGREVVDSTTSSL
structure (smiles),measurement,setting,value
N[C@](CC1c2ccccc2Oc2ccccc21)(C(=O)O)[C@H]1C[C@@H]1C(=O)O [LY341495],immobility time,[1],dose-dependently reduced
same,antidepressant-like effects,[2],Antidepressant-like effects
same,antidepressant-like effects,[3],Antidepressant-like effects
same,marble-burying behavior,[4],significantly reduce
same,activity in the tail suspension test,[5],active
same,antidepressant effect,[5]; acute administration,potent antidepressant effect
same,LY566332 amplification of AP-induced neurodegeneration,[6],prevented
same,hypolocomotor effect of mGlu2/3 agonist (LY379268),[7],achieved the same result
N[C@]1(C(=O)O)[C@H]2[C@@H](C[C@H]1OCc1ccc(Cl)c(Cl)c1)[C@]2(F)C(=O)O [MGS0039],freezing behavior,[8],significantly decreased
same,number of escape failures,[9],significantly reduced
same,hyperactivity in the open field test,[10],attenuated
same,learning deficit in the passive avoidance test,[10],attenuated
same,antidepressant-like effects,[2],Antidepressant-like effects
same,antidepressant-like effects,[3],Antidepressant-like effects
same,marble-burying behavior,[4],reduced marble-burying behavior in a significant and dose dependent manner
same,spontaneous locomotor activity,[4],no significant change
same,increased immobility in the FST,[11],reversed
CNCCC(Oc1ccc(C(F)(F)F)cc1)c1ccccc1 (centres unmarked) [fluoxetine],onset of effects,[12],after two weeks
same,antidepressant effect,[5]; chronic (21 days) treatment,full antidepressant effect
CCS(=O)(=O)N(Cc1cccnc1)c1cccc(-c2ccc(C#N)cc2)c1 [LY566332],AP-induced neurodegeneration,[6],amplified
CN1C(=O)CN=C(c2ccccc2)c2cc(Cl)ccc21 [diazepam],freezing behavior,[8],significantly decreased
COCCCC/C(=N\OCCN)c1ccc(C(F)(F)F)cc1 [fluvoxamine],freezing behavior,[8],significantly decreased
CCCCCCCOC(=O)[C@@]1(F)[C@@H]2C[C@@H](OCc3ccc(Cl)c(Cl)c3)[C@@](N)(C(=O)O)[C@@H]21 [BCI-838],Dutch APP transgene-associated learning and memory impairment,[13]; three months of treatment,reversed
same,anxiolytic effects,[13]; three months of treatment,anxiolytic effects
same,levels of monomeric and oAβ peptides in the hippocampus and cortex,"[13]; three months of treatment, two AD mouse models",decreased
same,hippocampal progenitor cell proliferation,"[13]; wild-type and Alzheimer's diseased mice, 3 months",stimulated
Cc1cc(-c2cccc(C3=Nc4cc(C)c(C(F)(F)F)cc4NC(=O)C3)c2)cc(C)n1 [Compound R04491533],immobility time,[1],dose-dependently reduced
same,activity in the tail suspension test,[5],active
same,hypolocomotor effect of mGlu2/3 agonist (LY379268),[7],reversed
"CC(C)Oc1cc(-c2cc3c(c(-c4cnsc4)c2)CNC3=O)ccc1C#N [Compound 62, 2-isopropoxy-4-(7-(isothiazol-4-yl)-3-oxoisoindolin-5-yl)benzonitrile]",IC50,[14],> 10000 nM
same,Human mGlu2 GIRK IC50 (nM),[15],Inactive
"O=C1NCc2c1cc(-c1ccc(F)cc1F)cc2N1CCS(=O)(=O)CC1 [Compound A3, 6-(2,4-difluorophenyl)-4-(1,1-dioxidothiomorpholino)isoindolin-1-one]",Human mGlu3 GIRK IC50 (nM),[14],Inactive
same,IC50,[15],2970 nM
"Cn1nc(C(F)(F)F)cc1-c1cc(-c2ccc(F)cc2F)cc2c1CNC2=O [Compound 78, 6-(2,4-difluorophenyl)-4-(1-methyl-3-(trifluoromethyl)-1H-pyrazol-5-yl)isoindolin-1-one]",Human mGlu3 GIRK IC50 (nM),[14],Inactive
same,IC50,[15],204 nM
"O=C1NCc2c1cc(-c1ccc(F)cc1F)cc2-c1cnco1 [Compound 6, 6-(2,4-difluorophenyl)-4-(oxazol-5-yl)isoindolin-1-one]",Human mGlu3 GIRK IC50 (nM),[14],Inactive
same,IC50,[15],66 nM
"CC(C)n1nccc1-c1cc(C2=CCC3(CC2)OCCO3)cc2c1CNC2=O [Compound 87, 4-(1-isopropyl-1H-pyrazol-5-yl)-6-(1,4-dioxaspiro[4.5]dec-7-en-8-yl)isoindolin-1-one]",Human mGlu3 GIRK IC50 (nM),[14],Inactive
same,IC50,[15],3810 nM
"CSc1ncc(-c2cc(-c3ccc(F)cc3F)cc3c2CNC3=O)cn1 [Compound 39, 6-(2,4-difluorophenyl)-4-(2-(methylthio)pyrimidin-5-yl)isoindolin-1-one]",IC50,[14],3960 nM
same,IC50,[15],555 nM
"Cn1cc(-c2cc(-c3ccc(F)cc3F)cc3c2CNC3=O)cn1 [Compound 19, 6-(2,4-difluorophenyl)-4-(1-methyl-1H-pyrazol-4-yl)isoindolin-1-one]",Human mGlu3 GIRK IC50 (nM),[14],Inactive
same,IC50,[15],181 nM
"CC(C)(O)C1CCN(c2cc(-c3ccc(F)cc3F)cc3c2CNC3=O)C1 (centres unmarked) [Compound A8, 6-(2,4-difluorophenyl)-4-(3-(2-hydroxypropan-2-yl)pyrrolidin-1-yl)isoindolin-1-one]",Human mGlu3 GIRK IC50 (nM),[14],Inactive
same,IC50,[15],650 nM
"CC1(C)CN(c2cc(-c3ccc(F)cc3F)cc3c2CNC3=O)CC(C)(C)O1 [Compound A6, 6-(2,4-difluorophenyl)-4-(2,2,6,6-tetramethylmorpholino)isoindolin-1-one]",Human mGlu3 GIRK IC50 (nM),[14],Inactive
same,IC50,[15],2090 nM
"CC(C)Cn1nccc1-c1cc(-c2ccc(F)cc2F)cc2c1CNC2=O [Compound 76, 6-(2,4-difluorophenyl)-4-(1-isobutyl-1H-pyrazol-5-yl)isoindolin-1-one]",IC50,[14],> 10000 nM
same,IC50,[15],179 nM
"CC(C)Oc1ncccc1-c1cc(-c2ccc(F)cc2F)cc2c1CNC2=O [Compound 75, 6-(2,4-difluorophenyl)-4-(2-isopropoxypyridin-3-yl)isoindolin-1-one]",IC50,[14],> 10000 nM
same,IC50,[15],865 nM
"Cc1cc(-c2cc(-c3ccc(F)cc3F)cc3c2CNC3=O)cnn1 [Compound 13, 6-(2,4-difluorophenyl)-4-(6-methylpyridazin-4-yl)isoindolin-1-one]",Human mGlu3 GIRK IC50 (nM),[14],Inactive
same,IC50,[15],163 nM
